Assay results reported in US5614192A, “T cell receptor peptides as therapeutics for immune-related disease” (Connective Therapeutics, Inc., priority 1993, dated 1997).

Key:
[1] = system: lymph node cells and Vβ8-44-54 selected T cell line
[2] = system: T cell lines derived from rats protected from EAE; experiment: Proliferation of LN cells and T cell lines from rats protected by TCR Vβ8 peptide (Table 12); assay type: cell-based, rat
LNC and T cell lines = experiment: T cell proliferation after treatment of EAE with TCR Vβ8 39-59/CFA (Table 27); assay type: cell-based, rats
Protocol: Lymphocyte Proliferation: Activation of T cells was measured by ^3 H-Tdy uptake. 500,000 lymph node cells or 20,000 line cells in the presence of 1 million irradiated thymic accessory cells were incubated with culture medium and antigens in microtiter wells for 18 hours prior to the addition of 0.5 μBq labeled thymidine. The cell cultures were harvested onto glass fiber filters and counted by liquid scintillation techniques. Mean CPM were calculated from triplicate cultures. Standard deviations (SD) from replicate cultures varied <10% from the mean value.
^a Treated rats were injected s.q. with 50 μg TCR Vβ839-59
^b LW cells collected after the untreated group recovered from EAE

EAE [3] = experiment: Clinical EAE in rats treated with TCR Vβ8(39-59) before or after onset (Table 22); assay type: in vivo; details: Exp. 2; control TCR peptide, day 13
Protocol: The ability of the TCR Vβ8(39-59) given either SC (in adjuvant) or ID (in saline) to disrupt the disease process when given at various times after induction of EAE with GPBP was tested (Table 22). […] In both cases, with both routes of injection of the peptide, there was a significant reduction in the duration of the disease, though not in the severity or time of onset. The efficacy of the peptide given in saline via the ID route is of particular importance to human therapy, as it is preferred to SC injection in adjuvant.
In Experiment 2, the time of ID administration of the TCR peptide was varied, as was the dose. […] A delay in onset of the disease was also observed. Furthermore, the percentage of animals showing signs of the disease decreased. A larger dose of the peptide (200 μg) appeared less efficacious than the lower dose, possibly due to a short-term overload of the peptide which could have comprised the immune response generated against the TCR. Treatment with a similarly sized peptide corresponding to an irrelevant TCR had no effect on onset, severity or incidence of EAE, but may have reduced the duration somewhat (last line of Table 22).

EAE [4] = experiment: Prevention, suppression and treatment of EAE with TCR Vβ8-39-59 peptide (Table 25); assay type: in vivo, Lewis rats; details: peptide/CFA s.q.
EAE [5] = experiment: Prevention and suppression of EAE by immunization with TCR Vβ8(39-59) (Table 17); assay type: in vivo, Lewis rats; details: 100 μg peptide/CFA day 0, Gp-S49S (100 μg) challenge day 0
EAE [6] = experiment: Prevention of EAE by immunization with TCR peptide (Example VI); assay type: in vivo, Lewis rats; details: for protection from EAE: Lewis rats
Source text: EAE is a well-recognized rat model of the human autoimmune disease, multiple sclerosis. […] In this model, the disease is induced by injecting the subject rat with an encephalitogenic form of myelin basic protein, such as, for example, guinea pig basic protein (GPBP) or a synthetic peptide that corresponds to residues 72-89 of GPBP (GPBP(72-89)). Injection of either of these peptides in complete Freund's adjuvant (CFA) induces encephalitogenic T cell clones that utilize preferentially the rat homologs of mouse TCR Vα2 and Vβ8 genes (Chou, Y. K., et al., J. Neurosci. Res. 22:181-187 (1989); Burns, F. R., et al., J. Exp. Med. 169:27-39 (1989)).
^1 EAE was induced by SC challenge with 50 μg GPBP + 400 μg
^2 Rats were injected SC with either: (1) 100 μg of the TCR peptid
^3 Values represent the mean of the maximum severity of EAE. 0, no

TCR Vβ8(39-59) peptide = assay type: binding, rat
DTH response = experiment: Delayed hypersensitivity responses to TCR peptides, ear swelling (Table 26); assay type: in vivo, Lewis rats
T cell immunity = T cell immunity / DH response induced by peptide; assay type: in vivo; details: Lewis rats
Source text: Immunogenicity of peptides useful in the present invention can be screened by well-known methods, such as use of a DH response in an animal. In such a response, an animal is "sensitized" by injection of an appropriate dose of an antigen, typically subcutaneously (SC), frequently with an adjuvant, such as complete Freund's adjuvant (CFA). Generally about 5-15 days later, the response is "elicited" by challenging the animal, typically intradermally (ID), with an appropriate dose of the antigen, typically in saline or other buffer. The response is assessed 24-48 hours later. […]
The desired peptides, with sequences determined as described above, are prepared using standard synthesis techniques including solution and solid phase sequential amino acid conjugation and recombinant production in prokaryotic or eukaryotic hosts. Verification that the peptide prepared is immunogenic can easily be determined using a DH reaction in an animal (e.g., mouse or rat), as described above. […] The ear swelling response, measured 24 or 48 hours after challenge, serves as a simple and reliable measure of the presence of T cell-mediated immunity to the peptide.

[7] = 100 μg peptide/CFA SC 30 days before GPBP/CFA

## APGGTLQQLFYSFNVGQSLF [TCR Vβ14 peptide, control peptide, residues 39-59 of rat TCR homologous to mouse Vβ14, reference compound]
[1]
  Response of Lymph Node Cells: 18 ± 2
  Response of T Cell Line: 9 ± 1
[2]; 1st value column (head not given; LN cells of protected rats)
  T Cell Proliferation: 10 cpm × 10^-3
[2]; 2nd value column (head not given, TCR Vβ8(39-59)-selected line)
  T Cell Proliferation: 2 cpm × 10^-3
LNC and T cell lines; Treated rats, line Vβ8/1st
  Proliferation: 8 ± 2 CPM/1000
LNC and T cell lines; Untreated rats (GPBP/CFA only), LNC
  Proliferation: 29 ± 4 CPM/1000
LNC and T cell lines; Untreated rats, line BP/1st
  Proliferation: 17 ± 2 CPM/1000
LNC and T cell lines; Untreated rats, line Vβ8/1st
  Proliferation: 11 ± 2 CPM/1000
LNC and T cell lines; Untreated rats, line Vβ14/1st
  Proliferation: 25 ± 6 CPM/1000
EAE [3]
  Day of Onset: 13.7 ± 0.5
  Disease Duration: 3.5 ± 0.5
  Disease Incidence: 6/6
  Disease Severity: 2.5 ± 0.8
EAE [4]; Day 0
  Duration: 6.4 ± 0.3 days
  EAE/TOTAL: 6/6
  Max Clin. Signs: 3.3 ± 0.5
  Onset: 12
EAE [4]; Day -40
  Duration: 6.1 ± 0.6 days
  EAE/TOTAL: 8/8
  Max Clin. Signs: 3.2 ± 0.3
  Onset: 12
EAE [4]; Day onset
  Duration: 6.0 ± 1.5 days
  EAE/TOTAL: 4/4
  Max Clin. Signs: 3.0 ± 0.4
  Onset: 12
EAE [5]
  Clinical Score: 2.9
EAE [6]; [7]
  EAE Day of Onset: 14 ± 2
  EAE Duration: 6 ± 2
  EAE Severity (mean of maximum severity, scale 0-4): 3.1 ± 0.3
EAE [6]; 100 μg peptide/CFA SC 30 days before challenge with 50 μg GPBP/CFA
  EAE Incidence: 4/4
EAE [6]
  protection from EAE: did not confer protection against EAE
EAE [6]; listed as Vβ14(39-59)
  protection from EAE: did not provide protection from EAE
TCR Vβ8(39-59) peptide
  absorbance of serum on TCR Vβ8(39-59) peptide (A405): 0.02±0.01 units
DTH response; GP-BP/CFA immunized rats, ear test Day 12 (EAE onset)
  48 Hour DTH Response: 11 ± 4
DTH response; Normal or saline/CFA rats, ear test Day 12
  48 Hour DTH Response: 10 ± 4
DTH response; TCR Vβ8 peptide/CFA immunized rats, ear test Day 30
  48 Hour DTH Response: 9 ± 3
DTH response; TCR Vβ814 (so in the source) peptide/CFA immunized rats, ear test Day 30
  48 Hour DTH Response: 40 ± 4
T cell immunity
  induction of T cell immunity: did induce immunity
